EPA's ToxValDB 9.5

Tested on: Rattus norvegicus
[1] = short-term, duration: 28 days, oral, gavage, F, Sprague-Dawley, Clinical Observation: Staggering gait Locomotor activity decrease, Lacrimation Prone position Loose stool + Functional Observational Battery…
[2] = short-term, duration: 28 days, oral, gavage, M, Sprague-Dawley, Clinical Observation: Staggering gait Locomotor activity decrease, Lacrimation Prone position Loose stool + Functional Observational Battery…
[3] = short-term, duration: 28 days, oral, gavage, F, Sprague-Dawley, Clinical Observation: Staggering gait + Body Weight Changes: decrease, Gain decrease + Urinalysis: pH decrease, Protein decrease, Volume …
[4] = short-term, duration: 28 days, oral, gavage, M, Sprague-Dawley, Clinical Observation: Staggering gait + Body Weight Changes: decrease, Gain decrease + Urinalysis: pH decrease, Protein decrease, Volume …
[5] = subchronic, oral, gavage, M, Sprague-Dawley, Clinical Observation: Salivation PtosisReddish urine + Functional Observational Battery: Salivation Coordination of movement, abnormal …
[6] = short-term; duration: 28 days; oral; gavage; M; Sprague-Dawley; Deaths/5) + Body Weight Changes: decrease + Food Consumption: decrease + Urinalysis: Urine volume decrease, Uosm increase + Hematology: MCH …
[7] = short-term, duration: 28 days, oral, gavage, F, Sprague-Dawley, Clinical Observation: Salivation80 + Necropsy: Stomach-Thickening, limiting ridge Forestomach-Thickening, mucosa, focal + Histopathology: …
[8] = short-term, duration: 28 days, oral, gavage, M, Sprague-Dawley, Clinical Observation: Salivation80 + Necropsy: Stomach-Thickening, limiting ridge Forestomach-Thickening, mucosa, focal + Histopathology: …

With `CCNc1cccc2ccccc12` [1-Naphthalenamine, N-ethyl-] the NOEL (short-term, duration: 28 days, oral, gavage, M/F, Sprague-Dawley, Deaths + Clinical Observation: Brown urine Soft feces + Functional Observational Battery: Motor activity decrease + Body Weight Changes: …) was 12 mg/kg-day.
In the case of `CCC[N+](=O)[O-]` [1-Nitropropane], the NOAEL (short-term, duration: 28 days, oral, gavage, M/F, Sprague-Dawley, Deaths + Clinical Observation: Salivation Red/brown staining around the mouth Hunched posture + Body Weight Changes: Body weight gain …) was 30 mg/kg-day.
`NC(=O)Nc1ccccc1` [1-Phenylurea] gave an LOEL [1] of 400 mg/kg-day, an NOEL [1] of 200 mg/kg-day and an LOEL [2] of 200 mg/kg-day. The NOEL [2] was 100 mg/kg-day.
In the case of `CCCCCCCCCCCCC(CO)CCCCCCCCCC` (stereo not given) [1-Tetradecanol, 2-decyl-], the NOAEL (subchronic, oral, gavage, M, Sprague-Dawley, Urinalysis: Occult blood + Hematology: PT increase, APTT increase + Blood Chemistry: LDH increase) was 62.5 mg/kg-day.
With `CC1(C)COC(=O)C1O` (stereo not given) [2(3H)-Furanone, dihydro-3-hydroxy-4,4-dimethyl-] the NOAEL (short-term, duration: 28 days, oral, gavage, M, Sprague-Dawley, Blood Chemistry: K increase) was 200 mg/kg-day.
Work on `O=C(Nc1ccccc1SSc1ccccc1NC(=O)c1ccccc1)c1ccccc1` [2,2'-Dibenzoylaminodiphenyl disulfide] yielded an NOEL (subchronic, oral, gavage, M, Sprague-Dawley, Clinical Observation: Salivation + Blood Chemistry: ALT increase, Glu increase + Absolute Organ Weight: Liver increase + Relative Organ …) of 300 mg/kg-day.
`Cc1cc(Cc2cc(C)cc(C(C)(C)C)c2O)c(O)c(C(C)(C)C)c1` [2,2'-Methylenebis(4-methyl-6-tert-butylphenol)] was tested, and the NOEL (subchronic, oral, diet, F, Wistar, Deaths: Survival rate.6 (45% % ).0 (20% % ) + Body Weight Changes: decrease + Food Consumption: decrease + Hematology: Hgb decrease RBC …) was < 104 mg/kg-day, the NOEL (subchronic, oral, diet, M/F, Wistar, Deaths: Survival rate.6 (45% % ).0 (20% % ) + Body Weight Changes: decrease + Food Consumption: decrease + Hematology: Hgb decrease RBC …) was < 0.12% and the NOEL (subchronic, oral, diet, M/F, Wistar, Hematology: Hgb increasemg/kg/ + Blood Chemistry: Cho increasemg/kg/ + Absolute Organ Weight: Liver increasemg/kg/ + Relative Organ …) was 1.92 mg/kg-day.
With `Nc1ccccc1OCCOc1ccccc1N` [2,2'-[Ethane-1,2-diylbis(oxy)]dianiline] the NOEL (short-term, duration: 28 days, oral, gavage, M/F, Blood Chemistry: Alb increase, T-Bil increase, TG decrease, GPT increase, TP increase + Organ Weight: Liver increase, Kidney increase + …) was < 50 mg/kg-day.
In the case of `O=Cc1cccc(Cl)c1Cl` [2,3-Dichlorobenzaldehyde], the NOEL (short-term, duration: 28 days, oral, gavage, M/F, Clinical Observation: Salivation + Body Weight Changes: Body weight gain decrease + Blood Chemistry: GPT increase, A/G increase + Organ …) was < 20 mg/kg-day.
With `NCCCC1OCC2(CO1)COC(CCCN)OC2` (stereo not given) [2,4,8,10-Tetraoxaspiro[5.5]undecane-3,9-dipropanamine] the NOEL (subchronic, oral, gavage, M, Sprague-Dawley, Clinical Observation: Locomotor activity decrease, Respiratory irregularity Prone position Salivation + Body Weight Changes: decrease1000…) was < 40 mg/kg-day.
`CC(C)(C)CC(C)(C)c1cc(O)c(C(C)(C)CC(C)(C)C)cc1O` [2,5-Bis(1,1,3,3-tetramethylbutyl)hydroquinone] was tested, and the NOEL (subchronic, oral, gavage, M, Sprague-Dawley, Clinical Observation: Soft stool Soiled perineal region + Body Weight Changes: Gain decrease + Food Consumption: increase + Hematology: Hgb …) was 10 mg/kg-day.
In the case of `Nc1ccc([N+](=O)[O-])cc1O` [2-Amino-5-nitrophenol], the NOEL (subchronic, duration: 13 weeks, oral, gavage, M/F, Fischer 344, Deaths + Body Weight Changes: decrease + Absolute Organ Weight: Liver increase + Relative Organ Weight: Liver increase + Histopathology: …) was < 100 mg/kg-day.
With `CCC(C)=NO` [2-Butanone oxime] the NOEL (subchronic, oral, drinking water, F, Fischer 344, Clinical Observation: Dark eyes Pale ears + Body Weight Changes: decrease + Water Consumption: decrease + Hematology: Hct decrease, Hgb …) was < 30 mg/kg-day and the NOEL (subchronic, oral, drinking water, M/F, Fischer 344, Clinical Observation: Dark eyes Pale ears + Body Weight Changes: decrease + Water Consumption: decrease + Hematology: Hct decrease, Hgb …) was < 47.4 mg/kg-day.
`COc1ccc(OC)c(Cl)c1` [2-Chloro-1,4-dimethoxybenzene] showed an LOEL [3] of 200 mg/kg-day, an NOEL [3] of 40 mg/kg-day and an LOEL [4] of 200 mg/kg-day. For the same compound, the NOEL [4] was 40 mg/kg-day and the NOEL (subchronic, oral, gavage, M, Sprague-Dawley, Hematology: RBC decrease, MCV increase, MCH increase + Blood Chemistry: T-Cho increase, PL increase, Ca increase + Absolute Organ Weight: …) was 30 mg/kg-day.
For `Nc1ccc([N+](=O)[O-])cc1Cl` [2-Chloro-4-nitroaniline], the NOEL (subchronic, oral, gavage, Sprague-Dawley) was 100 mg/kg-day.
Compound `CCCCC(CC)COC(=O)CS` (stereo not given) [2-Ethylhexyl thioglycolate] has an NOAEL (short-term, duration: 28 days, oral, diet, M, Fischer 344, Hematology: WBC decrease Lymph decrease + Blood Chemistry: AST increase) of 0.2%.
`COc1ccc(C)cc1N` [2-Methoxy-5-methylaniline] showed an NOEL (short-term, duration: 28 days, oral, gavage, M/F, Clinical Observation: Salivation + Body Weight Changes: Weight gain decrease + Food Consumption: decrease + Urinalysis: Occult blood RBC …) of 2 mg/kg-day.
`CC(O)CC(C)(C)O` (stereo not given) [2-Methyl-2,4-pentanediol] gave an NOAEL (subchronic, duration: 90 days, oral, gavage, M/F, CD(SD), Deaths: None (there were dead animals by miss-dosing) + Water Consumption: increase + Urinalysis: pH decrease, S.G. increase + Hematology: …) of 450 mg/kg-day.
Work on `C=CC(C)(C)O` [2-Methyl-3-buten-2-ol] yielded an NOAEL (short-term, duration: 28 days, oral, gavage, M/F, Wistar, Deaths + 'excluded + Clinical Observation: Sedation Ataxia Uncoordinated gait Salivation + Blood Chemistry: ALT increase, AST increase + …) of 50 mg/kg-day.
`COCCOCCOCCO` [2-[2-(2-Methoxyethoxy)ethoxy]ethanol] gave an NOAEL (chronic, duration: 91 days, oral, drinking water, M/F, Sprague-Dawley, Deaths + Body Weight Changes: Body weight gain decrease + Food Consumption: decrease + Water Consumption: decrease + Absolute Organ Weight: …) of 400 mg/kg-day.
With `Cc1ccc(Cl)c(Cl)c1` [3,4-Dichlorotoluene] the NOEL (subchronic, oral, gavage, M, Sprague-Dawley, Deaths + Clinical Observation: Death-1/6 on treatment day 15R + Body Weight Changes: decrease(tendency)Body weight gain decrease(tendency…) was 100 mg/kg-day.
`Nc1cc(C(=O)O)ccc1Cl` [3-Amino-4-chlorobenzoic acid] was tested, and the NOEL (subchronic, oral, gavage, M, Sprague-Dawley, Clinical Observation: Transient salivation + Histopathology: Mesentric lymph node-Granuloma R) was 200 mg/kg-day.
Work on `CCO[Si](CCCN)(OCC)OCC` [3-Aminopropyltriethoxysilane] yielded an NOAEL (chronic, duration: 91 days, oral, gavage, M/F, CD(SD), Deaths + Clinical Observation: Rales Wet and/or dried material (red, yellow, brown and/or clear) on various body surfaces Abnormal excreta…) of 200 mg/kg-day.
In the case of `C=C(C)CCl` [3-Chloro-2-methylpropene], the NOEL (subchronic, duration: 13 weeks, oral, gavage, M/F, Fischer 344, Deaths + Clinical Observation: Rough coat>400 + Body Weight Changes: decrease + Histopathology: Liver-Inflammation, Chronic, Focal Liver-…) was 100 mg/kg-day.
In the case of `O=C1OC(O)C(C(Cl)Cl)=C1Cl` (stereo not given) [3-Chloro-4-(dichloromethyl)-5-hydroxy-2(5H)-furanone], the NOAEL (chronic, duration: 18 weeks, oral, gavage, M/F, Wistar, Deaths + Clinical Observation: Emaciation Wheezy breathing Tangled fur Hypersalivation Dirty mouth surrounding Colored nostril discharges + …) was < 30 mg/kg-day.
`CC(C)=CCO` [3-Methyl-2-buten-1-ol] gave an NOAEL (subchronic, duration: 90 days, oral, drinking water, M/F, Wistar, Body Weight Changes: Mean body weight decrease, Weight gain decrease + Food Consumption: decrease + Water Consumption: decrease + Urinalysis…) of 152 mg/kg-day.
In the case of `O=C(O)c1cccc([N+](=O)[O-])c1` [3-Nitrobenzoic acid], the NOEL (subchronic, oral, gavage, M, Sprague-Dawley, Body Weight Changes: decrease + Hematology: RBC decrease + Blood Chemistry: TP decrease, A/G increase, Pi increase, K increase, Cl decrease…) was 20 mg/kg-day.
In the case of `COc1cc(NC(=O)CC(C)=O)c(OC)cc1Cl` [4'-Chloro-2',5'-dimethoxyacetoacetanilide], the NOAEL [5] was 40 mg/kg-day and the NOEL [5] was 8 mg/kg-day.
With `O=S(=O)(c1ccc(Cl)cc1)c1ccc(Cl)cc1` [4,4'-Dichlorodiphenyl sulfone] the NOEL (chronic, duration: 14 weeks, oral, diet, M/F, Fischer 344, Body Weight Changes: decrease + Food Consumption: decrease + Hematology: Hgb decrease, Plt increase + Blood Chemistry: TP increase, BUN …) was < 2.34 mg/kg-day, the NOAEL [6] was < 50 mg/kg-day and the NOEL [6] was < 50 mg/kg-day.
Compound `CCc1ncnc(Cl)c1Cl` [4,5-DICHLORO-6-ETHYLPYRIMIDINE] has an NOEL (short-term, duration: 28 days, oral, gavage, M/F, Deaths + Clinical Observation: Salivation Locomotor activity decrease, Ptosis + Body Weight Changes: Weight gain decrease + Food Consumption…) of 5 mg/kg-day.
In the case of `O=[N+]([O-])c1cc([As](=O)(O)O)ccc1O` [4-Hydroxy-3-nitrophenylarsonic acid], the NOEL (subchronic, duration: 13 weeks, oral, diet, M/F, Fischer 344, Deaths + Clinical Observation: Ruffled fur Hyperexcitability Ataxia Trembling Slight inactivity + Body Weight Changes: decrease + Relative …) was < 4.8 mg/kg-day.
`C=Cc1ccncc1` [4-Vinylpyridine] showed an LOEL [7] of 80 mg/kg-day, an NOEL [7] of 40 mg/kg-day and an LOEL [8] of 40 mg/kg-day. It also gave an NOEL [8] of 20 mg/kg-day.
With `Nc1ccc2cc(S(=O)(=O)O)ccc2c1` [6-Aminonaphthalene-2-sulfonic acid] the NOEL (short-term, duration: 28 days, oral, gavage, M/F, Urinalysis: pH decrease + Blood Chemistry: GOT increase) was 300 mg/kg-day.
`O=C/C=C/c1ccccc1` [(2E)-3-Phenylprop-2-enal] was tested, and the NOEL (chronic, duration: 14 weeks, oral, diet, F, Fischer 344, Body Weight Changes: decrease + Food Consumption: decrease + Hematology: Ret decrease, Plt decrease + Blood Chemistry: Bile acid increase, …) was < 300 mg/kg-day and the NOEL (chronic, duration: 14 weeks, oral, diet, M/F, Fischer 344, Body Weight Changes: decrease + Food Consumption: decrease + Hematology: Ret decrease, Plt decrease + Blood Chemistry: Bile acid increase, …) was < 320 mg/kg-day.
With `C/C=C/C=C/C=O` [(2E,4E)-2,4-Hexadienal] the NOEL (chronic, duration: 14 weeks, oral, gavage, M/F, Fischer 344, Clinical Observation: Hypersalivation + Body Weight Changes: decrease + Histopathology: Stomach/forestomach-Epithelium hyperplasia Stomach/…) was 15 mg/kg-day.
With `CC/C=C\CCOC(=O)c1ccccc1O` [(3Z)-Hex-3-en-1-yl salicylate] the NOAEL (subchronic, duration: 42 days, oral, gavage, M, Sprague-Dawley, Water Consumption: increase + Urinalysis: Volume increase, Osmo decrease + Hematology: RBC decrease, MCV increase, MCHC increase, RET …) was 120 mg/kg-day.
Work on `CC(C)c1ccc2oc3nc(N)c(C(=O)O)cc3c(=O)c2c1` [Amlenanox] yielded an NOEL (subchronic, duration: 35 days, oral, gavage, M/F, Wistar, Blood Chemistry: ALP increase + Absolute Organ Weight: Cecum increase, Stomach increase + Relative Organ Weight: Carcass increase, Cecum …) of 200 mg/kg-day.
With `COc1ccc(OC)c(N)c1` [Benzenamine, 2,5-dimethoxy-] the NOEL (short-term, duration: 28 days, oral, gavage, M/F, Clinical Observation: Salivation + Body Weight Changes: Weight gain decrease + Food Consumption: decrease + Hematology: HGB decrease, RET …) was 1 mg/kg-day.
